Test system: PGM1-CDG patients
Experiment: Open-label prospective study of oral D-gal supplementation: safety and tolerability
Assay type: in vivo, human
From the text: The study design was an open-label prospective study. Patients with biochemically and genetically confirmed PGM1 deficiency were recruited into the study. Individuals with an existing diagnosis of aldolase B deficiency, galactosemia, hemolytic uremic syndrome, severe anemia, galactose intolerance, or intellectual disability were excluded from the study. Nine patients were enrolled in the study, five females and four males. Patient age ranged from 19 months to 21 years old at the time of enrollment (mean age 9.75 years). Informed written consent was obtained before the start of study. A primary end-point was to assess the safety and tolerability of oral D-gal supplementation and to identify physiological biomarkers that are responsive to D-gal supplementation in a heterogeneous genetic background. The effect of D-gal in PGM1-CDG patients was also monitored via glycomics. Secondary endpoints were the restoration of the plasma glycan subfractions, monitored via glycomics (Table 3), and normalization of antithrombin III activity and serum alanine transaminase (ALT) levels.
Participants in this pilot study received oral D-gal supplementation, added to the regular diet, over 18 weeks. D-gal (pure and soluble D-galactose powder: D-GALACTOSE or Galaxtra™) was provided as medical food/nutritional supplement. 50 g D-gal equals 5 tablespoons of “powdered sugar”. D-gal was added to a meal once a day. It can be added to any food or drink and has a mildly sweet aftertaste.
The D-gal intake was increased over the study period in increments as follows: weeks 0-6 (T0-T1), 0.5 g/kg per day; weeks 6-12 (T1-T2), 1.0 g/kg per day; weeks 12-18 (T2-T3), 1.5 g/kg per day (FIG. 2). The intake was increased gradually to reach the recommended maximum daily dose with minimal gastrointestinal irritation (diarrhea, stomachache, nausea) and metabolic side effects (presence of urinary galactitol).
Tolerability and side effects of oral D-gal supplementation, based on studies in blood (glucose, lactic acid, ammonia, galactose-1-phosphate) and urine (galactitol excretion), were monitored at every time point.
Dietary assessment, clinical evaluation (general physical examination and anthropometric measurements), and laboratory and biochemical studies were completed every 6 weeks (T0, T1, T2 and T3).
Liver transaminases (aspartate transaminase (AST) and alanine transaminase (ALT)), creatine kinase (CK), commonly assayed glycoproteins (thyroid stimulating hormone (TSH), thyroxine-binding globulin (TBG), and insulin-like growth factor binding protein 3 (IGF3BP)), and coagulation parameters (Factor IX, Factor XI, activated […] (aPTT), and anti-thrombin III (ATIII)), were measured in blood. Patent 1 had additional Factor XI, and XIII measurements. Serum galactose-1-phosphate and urine galactitol were measured to monitor safety and tolerability of galactose supplementation. Biochemical studies to evaluate changes in glycosylation included isoelectric focusing (IEF) of serum transferrin and glycomic analysis in blood by mass spectrometry.
Electrocardiography/echocardiography and hepatic ultrasonography were conducted at T0 and T3.

O=C[C@H](O)[C@@H](O)[C@@H](O)[C@H](O)CO [D-gal, D-galactose]
Serious adverse events (18 weeks oral D-gal): No serious adverse events were reported | Galactitol excretion in urine (during the trial): no patients experiencing increased galactitol excretion in urine | Adverse events (incremental increase in D-gal intake, monitored weekly): Aside from gastroenteritis in patient 2, no clinical or metabolic adverse events | Galactose-1-phosphate levels (patients 1, 2, 3, 5, 7, 9, T2 and T3): no abnormalities were found | Structural cardiac or liver changes (study endpoint): No structural cardiac or liver changes were noted | Clinical rhabdomyolysis (while on galactose supplementation): none of the patients experienced clinical rhabdomyolysis
